Test results taken from patent US20080279961A1, “TELOMERE TARGETING AGENTS AS STEM CELLS DIRECTED TREATMENTS” (priority 2007, published 2008).
“Also recorded” adds a separate entry of the source.

Experiments:
[1] = tolerability in xenograft studies (body weight, deaths, MTD)
Procedure: For the first in vivo experiment, tumor fragments (5×5 mm) from untreated donor animals were implanted subcutaneously into both flanks of recipient mice. Treatment was initiated 6 days after transplantation (=day 0, median tumor volume of ˜70 mm^3). Animals were randomized into groups following Lindner's randomization tables and treated by oral gavage with 5 mg/kg/d RHPS4 or vehicle (phosphate buffered saline) respectively (n=5-8 animals per group). […] Drug administration was repeated twice weekly for 8 times (Q3dx8) after randomization. Tumor growth was followed twice weekly by serial caliper measurement, body weights were recorded, and tumor volumes were calculated using the standard formula (length×width^2)/2, where length is the largest dimension and width the smallest dimension perpendicular to the length (Alley et al., 2004; Geran et al., 1972). The median relative tumor volume was plotted against time. Relative tumor volumes were calculated for each single tumor by dividing the tumor volume on day X by that on day 0 (time of randomization). Growth curves were analyzed in terms of tumor inhibition (treated/control, T/C, calculated as median tumor weight of treated divided by median tumor weight of control animals times 100). Statistical data analysis was done using non-parametrical Wilcoxon Mann-Whitney statistics. Median relative tumor volumes of each treatment group were compared with those of the vehicle control groups. P values less than 0.05 were considered statistically significant. SPSS 2000, SYSTAT version 10 software was used.
To conduct combination treatment with Paclitaxel, after 4 serial propagations of RHPS4 treated tumor tissue in nude mice (FIG. 1), RHPS4 was combined with Paclitaxel. Single agent Paclitaxel was given at 20 mg/kg i.v. on days 1 and 15. In combination with RHPS4 (given at 5 mg/kg p.o. twice weekly), only a single dose of Paclitaxel (20 mg/kg i.v.) was administered on day 1. Tumor growth parameters and body weight were assessed as described above.

[2] = system: hTERT; experiment: hTERT immunofluorescence staining in vitro; type: cell-based, human; conditions: UXF1138L cells, 1 microM, 24 hrs
Procedure: During phosphorylated H2AX (gamma-H2AX) and hTERT immunofluorescence staining, approximately 75,000 UXF1138L cells/chamber were seeded onto 8 chamber glass slides (Costar) 24 hrs prior to RHPS4 treatment. After exposure to 1 μM RHPS4 for 1, 6, or 24 hours, cells were washed twice with PBS and air dried. Cells were fixed and permeabilized by immersion into ice-cold methanol/acetone (1:1; 3×1 min). Slides were blocked overnight at 4° C. with 5% BSA in PBS and washed with PBS (3×) before incubation (2 hrs) with anti-gamma-H2AX mouse monoclonal antibody (Upstate, Waltham, Mass.; 1:250 in PBS) or hTERT monoclonal antibody (NCL-L-hTERT Novacastra, Newcastle, UK; 1:40) respectively. Control cells were probed with mouse IgG (Santa Cruz Biotechnolog Inc., Santa Cruz, Calif.). Slides were washed 3× with PBS, before incubation with a goat anti-mouse FITC conjugated secondary antibody (Sigma; 1:100, 3 h). Following further PBS washes (3×), slides were incubated with 1:5000 DAPI (2 mg/ml; Sigma), washed 3× in PBS and mounted with Vectashield mounting media. Images were visualized as described above.

[3] = system: UXF1138L cells; experiment: MTT proliferation assay (bulk cells); type: cell-based, human; conditions: 5 day, read-out: IC50 growth inhibition of the bulk population by MTT assay
Procedure: (§1) The growth inhibitory activity of RHPS4 in human bulk tumor cells have been compared, by MTT assay, against RHPS4 activity in tumor cells grown as colonies in the clonogenic assay, also termed the human tumor stem cell assay (HTCA) (FIG. 2A-B). HEK293T human embryonic kidney cells grown in the HTCA, and cord blood cells cultured in methylcellulose were also treated with RHPS4 (FIG. 2C). The MTT assay is a 5 day proliferation test measuring effects on a morphologically heterogeneous, differentiated cell population (bulk cells), whereas the HTCA and methylcellulose assays are longer term (10-15 day) tests in which only a very small fraction of a bulk culture (˜0.1-1%) will grow as colonies. Cells growing anchorage-independently as colonies in a semi-solid matrix are considered to be pluripotent stem cells (Hamburger & Salmon, 1977; Locke et al., 2005; Fiebig et al. 2004). […] Similar observations were made with the breast cancer cell line MCF-7 (shown in FIG. 2B, HTCA IC50=0.04 microM; bulk cell IC50=2 microM).

[4] = system: PC3 cells; experiment: MTT proliferation assay (bulk cells); type: cell-based, human; conditions: PC3, 5 day; read-out: IC50 growth inhibition of the bulk population by MTT assay
Procedure: as §1

[5] = system: MCF-7 cells; experiment: MTT proliferation assay (bulk cells); type: cell-based, human; conditions: MCF-7, 5 day; read-out: IC50 bulk cell / whole cell population by MTT assay
Procedure: as §1

COS(=O)(=O)[O-].Cc1cc2c3c([n+](C)c4ccc(F)cc4c3c1)-c1cc(F)ccc1N2C [RHPS4, 3,11-difluoro-6,8,13-trimethyl-8H-quino[4,3,2-kl]acridinium methosulfate]
Deaths [n/n], drug related death per mice per group ([1]; Passage #1): 0/5 | Deaths [n/n], drug related death per mice per group ([1]; Passage #2): 0/6 | Deaths [n/n], drug related death per mice per group ([1]; Passage #3): 0/8 | Deaths [n/n], drug related death per mice per group ([1]; Passage #4): 0/5 | tolerability ([1]; mouse, in vivo): well tolerated | 1/2 maximal tolerated dose ([1]; oral, mouse strain used): 5 mg/kg/day | nuclear hTERT expression in vitro [2]: nuclear hTERT expression was attenuated; also recorded: nuclear hTERT signal is attenuated | IC50 [3]: 400 nM | IC50 [4]: 1800 nM | IC50 [5]: 2000 nM
